Reference: patent publication US10942107B2, “Methods of screening for mild skin cleanser” (The Procter & Gamble Company, priority 2017, dated 2021)
Blank lines part the entries; values can stand above or below the substance they belong to.

Experiments:
[1] = system: skin; assay: Surfactant skin penetration at 5 depths after forearm controlled application technique (FCAT), liquid chromatography and mass spectrometry; format: in vivo
Description: One way to test the potential mildness of a surfactant is by looking at how it interacts with the skin. One type of interaction with the skin is skin penetration. Skin penetration looks at how much of the surfactant will penetrate into the skin. It is believed that the more the surfactant penetrates into the skin, the less mild the composition. Originally, this was believed to be largely driven by the structure of the surfactant, itself. Now, it is believed that the phase behavior associated with the surfactant can also have an impact on the penetration of the surfactant, and thus, its mildness. One surfactant reviewed for mildness is sodium trideceth-2 sulfate. […] In FIG. 1, the lighter gray (left hand column) is sodium trideceth-2 sulfate deposited on skin in a vesicle form, specifically a lamellar form as part of Composition F (below), while the darker gray (right hand column) is sodium trideceth-2 sulfate deposited in a micellar form as part of Composition E (below). The compositions were applied in accordance with a forearm controlled application technique (FCAT), a description of which is found in Ertel et al., “A forearm controlled application technique for estimating the relative mildness of personal cleansing products,” J. Soc. Cosmet. […] The levels of the target materials on the skin are then measured with a combination of liquid chromatography and mass spectrometry.

[2] = known in the art; cited from earlier work

penetration of the surfactant into skin (concentration at depth 01 to depth 05) ([1]; in vivo): A similar result was seen
Substance: cocamidopropyl betaine

Substance: cocamide monoethanolamine
HLB value [2]: 16.8

Substance: sodium trideceth-2 sulfate
penetration of the surfactant into skin (concentration at depth 01 to depth 05) ([1]; deposited from micellar composition (Composition E) versus lamellar composition (Composition F), FCAT, FIGS. 1-3): penetrates the skin at a greater concentration at all 5 depths measured
